The subject of test [1] is Human platelet aggregation. Kind of test: Platelet aggregation inhibiting effect (human platelet rich plasma, ADP induced, in vitro). It counts as cell-based. As to conditions: 1 min, human PRP, ADP 2 to 10 μM, 37° C., one minute incubation, read-out: Platelet aggregation inhibiting ratio (IC50). As to the method: Bloods were sampled from healthy male adults (22 to 34 years old) with no administration of drug for 2 weeks or more early in the morning when they were hungry. By use of an injector filled with a 3.8% sodium citrate solution, 50 ml of blood was sampled, immediately stirred by turning upside down and centrifuged at 200 G for 15 minutes. The supernatant was separated as the PRP (platelet rich plasma) and the residue was further subjected to centrifugation at 2000 G for 15 minutes, followed by recovery of the supernatant as PPP (poor platelet plasma) which ws provided for use in the experiment. 250 μl of PRP was placed in a cuvette, 5 μl of an 1% aqueous ethanol solution of the compound of the present invention or an 1% acqueous ethanol solution was added, and incubation was carried out at 37° C. for one minute. Then, an aggregation inducing agent (ADP) was added and the process of aggregation was recorded by Aggregometer (produced by Sienco Co.). As the concentration of ADP, the minimum concentrations of ADP (2 to 10 μM) to give the maximum aggregation for respective platelets were employed. The inhibition percentage of platelet aggregation was calculated by the following formula:
Inhibition percentage=(A-B/A)×100
A: Maximum aggregation ratio during addition of solvent ([…] aqueous ethanol solution)
B: Maximum aggregation ratio during addition of the compound of the present invention.
The platelet aggregation inhibiting effects of the compounds of the present invention are shown in terms of IC50 values in Table 1.

For test [2], the system named is Rat secreted gastric acid. Kind of test: Antiulcer effect: rat secreted gastric acid inhibiting effect (pylorus ligature). Type of test: in vivo, Male wistar strain rats. The conditions noted are these: 100 μg/kg, s.c., immediately after pylorus ligature; for Inhibition percentage: gastric acid vs. control group; for Amount of gastric acid secreted: gastric juice sampled after 4 hours, solvent 73.6 ± 4.3. As to the method: Male wistar strain rats (weighing 250-280 g) were fasted for 18 hours and subjected to peritoneotomy under ether anesthesia for ligature of pylorus, and after 4 hours under abstinence from food and water, gastric juice was sampled. The gastric juice was centrifuged at 3000 rpm for 10 minutes, and then the amount, pH and acidity of the gastric juice were measured. The acidity was measured by titration bymeans of an automatic titrating device (produced by Toa Denpa Kogyo) with a 0.1 N NaOH to pH 7.0 and calculated according to the following formula: [formula]
The gastric juice secretion inhibition percentage was calculated according to the following formula: [formula] A: Amount of gastric acid excreted in Control group B: Amount of gastric acid excreted in Drug group.
The drugs to be tested were administrated subcutaneously immediately after pylorus ligature.

Regarding `O=C(O)CCC/C=C1\C[C@H]2C[C@@H](O)[C@H](/C=C/[C@@H](O)C3CCCC3)[C@H]2C1` [OP-41483, reference compound], the IC50 in test [1] amounted to 0.012 µM.

`O=C(O)CCC=CC1=C[C@H]2C[C@@H](O)[C@H](C#CC(O)C3CCCCC3)[C@H]2C1` (stereo partly shown) [drawing 46]: in test [1], the IC50 was 0.01 µM.

As for `O=C(O)COCCC1=C[C@H]2C[C@@H](O)[C@H](C#CC(O)C3CCCCC3)[C@H]2C1` (stereo partly shown) [drawing 48], in test [1], the IC50 was 0.0045 µM.

As for `O=C(O)CCC=CC1=C[C@H]2C[C@@H](O)[C@H](C#CC(O)C3CCCCC3)[C@H]2C1` (stereo partly shown) [drawing 50], in test [2], the Inhibition percentage was 7.1% and the “Amount of gastric acid secreted” value came to 68.4 ± 10.1 mEq/l.

`O=C(O)COCCC1=C[C@H]2C[C@@H](O)[C@H](C#CC(O)C3CCCCC3)[C@H]2C1` (stereo partly shown) [drawing 52]: in test [2], the Inhibition percentage is 0% and the “Amount of gastric acid secreted” value is 84.9 ± 10.8 mEq/l.
